Assay results: patent publication US10288604B2, “Method for imaging cell using fluorescence-labeled sugar derivative having coumarin derivative bound thereto, and imaging agent” (HIROSAKI UNIVERSITY, priority 2012, dated 2019)

Experiments:
[1] = tested on: mouse insulinoma cells (MIN6); experiment: Uptake into MIN6 cells and influence of glucose transport inhibitors (fluorescent microplate reader); type: cell-based
Method: Cryopreserved MIN6 cells (cells donated from Professor Miyazaki Junichi of Osaka University and cultured 5 to 8 passages) were subjected to culture according to an ordinary method, and cultures at 7 to 9 passages were used in experiments.
NaCl 129.0 mM, KCl 4.75 mM, KH2 PO4 1.19 mM, MgSO4.7H2O 1.19 mM, CaCl2.2H2O 1.0 mM, NaHCO3 5.02 mM, D-Glucose 5.6 mM, HEPES 10 mM (pH was adjusted to 7.35 with 1M NaOH). For inhibiting entrance and elimination of a fluorescently labeled glucose via gap junction/hemichannel, 0.1 mM Carbenoxolone (SIGMA #C4790) was added. This KRB solution was used as a solution for preparing a 2-PBLG solution.
2-PBDG and 2-PBLG were charged into wells at the third column and the fifth column, respectively, using a 8-channel pipette. Before administration, the autofluorescence of each well was measured beforehand by a fluorescent micro plate reader (Flex Station, manufactured by Molecular Device). The measurement conditions include Bottom Read, Ex 401 nm, Em 453 nm, Cut off 420 nm, Averaging 3, and high sensitivity of Photomultiplier. In the measurement method, Well Scan Mode was used. In Well Scan Mode, the inside of one well was divided into 9 regions of interest (diameter: 1.5 mm) and measurement was performed each independently.
Next, in wells (3C, 3E, 3G) for measuring the effect of a glucose transport inhibitor phloretin, phloretin (final 150 μM) was administered beforehand from 5 minutes prior to administration of 2-PBDG, while KRB was added to other wells (3B, 3D, 3F). Similar operation was also conducted on the fifth column where 2-PBLG was to be administered. 2-PBDG and 2-PBLG were administrated at 37° C. for 10 minutes.
After completion of administration, a diluting operation of the fluorescence solution in the well using 300 μL of a KRB solution was repeated set times each for 30 seconds. The repetition time was determined so that the fluorescence intensity detected by wells of A-th row and H-th row set as a control group was equivalent to the fluorescence intensity of a blank well containing no cell, and complete washout was confirmed in every experiment. In the case of 2-PBDG and 2-PBLG, this washout process needed 8 minutes, thus, measurement of fluorescence after administration was carried out 9 minutes after.
According to this method, even if cells having undergone a loss of the plasma membrane contacted 2-PBDG and 2-PBLG and once took up these compounds into themselves, it is judged that contribution of the increase in the fluorescence intensity to the whole observation area was ignorable level since these compounds had already been washed out of the cells when performing the measurement. This was supported by a pharmacological inhibition experiment separately in which the increase in the fluorescence intensity almost completely disappeared in the presence of an inhibitor. The above-described method was conducted in the same manner also when other inhibitor, for example, cytochalasin B (10 μM) was added.
The change of fluorescence intensity by administration of a D-glucose derivative (2-PBDG), an L-glucose derivative (2-PBLG) and PB—NH2 prepared by amidating Pacific Blue (PB) chromophore group to MIN6 cells on day of 10 of culture and the effect by a glucose transport inhibitor were confirmed in the same manner as in Example 4. PB—NH2 has the following structure (Ex max. 402 nm, Em max. 451 nm).
An experiment was conducted in the same manner as in Example 4.
The experiment was carried out 3 times independently, and the same results were obtained in all cases. In the experiment of administration of 2-PBDM, excitation occurred at a maximum excitation light wavelength of 404 nm and fluorescence was acquired at a maximum emission wavelength of 453 nm.

[2] = tested on: neurons acutely dissociated from mouse midbrain substantia nigra pars reticulata; experiment: Application of fluorescent sugar derivatives to acutely dissociated normal neurons (confocal imaging of uptake); type: cell-based
Method: This was conducted according to a method described in WO 2010/16587.
Living neurons were acutely dissociated from mouse midbrain substantia nigra pars reticulata, and to which a mixed solution containing 100 μM of 2-PBDG and 20 μM of 2-TRLG was administered at 37° C. for 5 minutes. FIGS. 1A to C represent confocal microscopic images taken immediately before this. A is a fluorescence image in blue wavelength region (Blue channel, wavelength range: 415-580 nm). The position of cells is recognized by autofluorescence. The fluorescence signal intensity is represented by pseudocolor. B is a fluorescence image in red wavelength region (Red channel, 580-740 nm). A and B were obtained both by simultaneous excitation using 405 nm Blue diode laser at an intensity of 60%, wherein photomultipliers (PMT) 1 and 2 were used respectively, and the detection sensitivity of PMT2 was raised higher than PMT1 so that the presence or absence of invasion of 2-TRLG can be detected in a sensitive manner. C is a view in which the bright field image is overlaid on the fluorescence images of A and B.
An experiment was conducted in the same manner as in Example 2.
FIGS. 2A to C represent confocal microscopic images immediately before administration of a mixed solution containing 100 μM of 2-PBLG and 20 μM of 2-TRLG at 37° C. to acutely dissociated neurons of mouse midbrain substantia nigra pars reticulata for 5 minutes.
FIG. 3 represents confocal microscopic images before and after administration of a mixed solution containing 100 μM of 2-HCDG and 20 μM of 2-TRLG at 37° C. for 3 minutes to neurons acutely dissociated from mouse midbrain substantia nigra pars reticulata. A and B are fluorescence images acquired before administration in Blue channel (415-580 nm) and Red channel (580-740 nm), respectively. The excitation wavelength is 405 nm. C is an image of differential interference (Differential Interference contrast, DIC). D is an overlay of the above-described images. E to H are the same as A to D, excepting that E to H are images acquired 4 minutes after initiation of washout of the fluorescence tracer solution after administration of the 2-HCDG+2-TRLG fluorescence tracer solution at 37° C. for 3 minutes. […] Since invasion of 2-TRLG into a cell is not observed, the plasma membrane of the neuron is thought to be maintained intactly.
Since the optimal excitation wavelength was as very low as 320 nm in this experiment, an image was acquired by Retiga-2000R CCD camera manufactured by Q-imaging via a custom-order filter constituted of an excitation filter (320 nm) (half width: 40 nm), a fluorescence filter (435 nm) (half width: 40 nm) and a dichroic mirror (409 nm), by a xenon lamp, using Nikon Ti-E real time deconvolution microscope.

## O=C(NC1C(O)OC(CO)[C@H](O)C1O)c1cc2cc(F)c(O)c(F)c2oc1=O (stereo partly drawn) [2-PBLG, 2-Deoxy-2-((6,8-difluoro-7-hydroxycoumarin-3-yl)carboxamido)-L-glucose]
[1]; 100 μM derivative, 150 μM phloretin, MIN6 day 10, increase without phloretin as reference
  decreased value of fluorescence intensity owing to phloretin (average): 20.0%
[1]; 100 μM derivative, phloretin 150 μM, MIN6 day 10
  effect of phloretin on increase in fluorescence intensity (in words): inhibited the increase in the fluorescence intensity by 2-PBLG slightly
[1]; 100 μM each, absence of phloretin, 2-PBDG = 100%
  difference between fluorescence intensity of 2-PBDG and of 2-PBLG: no significant difference
[1]; 100 μM, MIN6 on day 10 of culture, Ex 401 nm, Em 453 nm
  fluorescence intensity after administration as compared with that before administration: increases significantly
[2]; 100 μM with 20 μM 2-TRLG, 37° C., 5 minutes, image 4 minutes after initiation of washout
  intracellular fluorescence intensity in Blue channel as compared with that before administration: scarcely increased
[2]; images 8 and 20 minutes after initiation of washout
  persistence of intracellular blue fluorescence after washout: recovered to the autofluorescence level
